Experimental data as given in patent US20100204182A1, “ECTONUCLEOTIDASE INHIBITORS” (RHEINISCHE FRIEDRICH-WILHELMS-UNIVERSITAT BONN, priority 2006, published 2010).

Columns and labels:
human NTPDase3 = target: T1, human NTPDase3 (Homo sapiens, UniProt O75355); assay: NTPDase inhibition assay by capillary electrophoresis (CE), NTPDase3; type: biochemical; conditions: ATP 320 μM; for inhibition at 1000 µM: 1 mM compound; for Ki: CE method, Km 75 μM, read-out: NTPDase3 Ki [μM] ± SEM
T1 sequence (O75355 1-529): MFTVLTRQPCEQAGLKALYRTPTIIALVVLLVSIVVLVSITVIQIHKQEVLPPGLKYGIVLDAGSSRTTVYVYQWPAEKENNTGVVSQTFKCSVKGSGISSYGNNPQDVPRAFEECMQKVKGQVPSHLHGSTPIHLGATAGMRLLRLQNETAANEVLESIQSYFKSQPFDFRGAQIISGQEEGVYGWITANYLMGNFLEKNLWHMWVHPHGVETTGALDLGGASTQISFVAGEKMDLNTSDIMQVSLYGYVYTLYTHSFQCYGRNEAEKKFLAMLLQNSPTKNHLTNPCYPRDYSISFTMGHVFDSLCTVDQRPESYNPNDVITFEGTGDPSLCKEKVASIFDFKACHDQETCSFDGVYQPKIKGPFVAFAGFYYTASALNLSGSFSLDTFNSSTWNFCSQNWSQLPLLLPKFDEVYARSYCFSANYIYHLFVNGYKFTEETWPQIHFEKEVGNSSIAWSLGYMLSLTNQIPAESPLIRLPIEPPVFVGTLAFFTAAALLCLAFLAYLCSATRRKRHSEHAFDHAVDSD
Protocol: (§1) The applied enzyme inhibition assay has been described (Iqbal J, Vollmayer P, Braun N, Zimmermann H, Müller C E. A capillary electrophoresis method for the characterization of ecto-nucleoside triphosphate diphosphohydrolases (NTPDases) and the analysis of inhibitors by in-capillary enzymatic microreaction. Purinergic Signalling 2005, 1, 349-358).
(§2) A. CE instrumentation: All experiments were carried out using a P/ACE MDQ capillary electrophoresis system (Beckman Instruments, Fullerton, Calif., USA) equipped with a UV detection system coupled with a diode-array detector (DAD). Data collection and peak area analysis were performed by the P/ACE MDQ software 32 KARAT obtained from Beckman Coulter. The capillary temperature was kept constant at 25° C. The temperature of the sample storing unit was also adjusted to 25° C. The electrophoretic separations were carried out using an eCAP polyacrylamide-coated fused-silica capillary [(30 cm (20 cm effective length)×50 μm internal diameter (I.D.)×360 μm outside diameter (O.D.), obtained from CS-Chromatographie (Langerwehe, Germany)]. The separation was performed using an applied current of −60 μA and a data acquisition rate of 8 Hz. Analytes were detected using direct UV absorbance at 210 nm. The capillary was conditioned by rinsing with water for 2 min and subsequently with buffer (phosphate 50 mM, pH 6.5) for 1 min. Sample injections were made at the cathodic side of the capillary.
(§3) B. NTPDase inhibition assay by capillary electrophoresis: Enzyme inhibition assays were carried out at 37° C. in a final volume of 100 μl. The reaction mixture contained 320 μM of ATP (substrate) in reaction buffer. The reaction buffer contained 140 mM NaCl, 5 mM KCl, 1 mM MgCl2, 2 mM CaCl2, and 10 mM Hepes, pH 7.4.
(§4) Different concentrations of inhibitors dissolved in DMSO or water (10 μl) were added and the reaction was initiated by the addition of 10 μl of the appropriately diluted recombinant or native human or rat NTPDase enzyme. […] The mixture (final volume 100 μl) was incubated for 15 min and terminated by heating at 99° C. for 4 min. Aliquots of the reaction mixture (50 μl) were then transferred to mini-CE vials and injected into the CE instrument under the conditions described above. 20 μM of UMP was used as internal standard. Inhibition of NTPDase was tested over a range of 6 to 8 concentrations of test compound spanning 3 orders of magnitude to determine K1 values. Each analysis was repeated two times (in triplicates) in two separate experiments. The Cheng-Prusoff equation was used to calculate the K1 values from the IC50 values, determined by the non-linear curve fitting program PRISM® 3.0 (GraphPad, San Diego, Calif., USA). In table 1K, values of selected compounds as inhibitors of human NTPDases are given.

human NTPDase8 = target: T2, human NTPDase8 (Homo sapiens, UniProt Q5MY95); assay: NTPDase inhibition assay by capillary electrophoresis (CE), NTPDase8; type: biochemical; conditions: for inhibition at 1000 µM: human NTPDase8, 1 mM compound, ATP 320 μM; for Ki: read-out: NTPDase8 Ki [μM] ± SEM
T2 sequence (Q5MY95 1-495): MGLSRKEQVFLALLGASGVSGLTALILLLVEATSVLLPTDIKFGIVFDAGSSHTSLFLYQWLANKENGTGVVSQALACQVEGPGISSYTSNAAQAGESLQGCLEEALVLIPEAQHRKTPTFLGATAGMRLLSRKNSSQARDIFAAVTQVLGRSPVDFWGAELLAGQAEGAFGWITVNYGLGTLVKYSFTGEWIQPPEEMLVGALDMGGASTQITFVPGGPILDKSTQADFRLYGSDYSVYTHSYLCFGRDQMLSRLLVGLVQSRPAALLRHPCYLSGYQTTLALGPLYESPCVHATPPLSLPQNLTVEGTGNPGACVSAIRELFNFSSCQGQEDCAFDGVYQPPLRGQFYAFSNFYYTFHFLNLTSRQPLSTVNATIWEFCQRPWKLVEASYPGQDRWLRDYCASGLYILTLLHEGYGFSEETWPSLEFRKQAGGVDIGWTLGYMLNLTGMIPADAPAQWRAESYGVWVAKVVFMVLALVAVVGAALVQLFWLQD
Protocol: as §1, §2, §3, §4

rP2Y6 = rP2Y6 (Rattus norvegicus, UniProt Q63371); assay: Inhibition of UDP binding at rP2Y6; conditions: read-out: rP2Y6 % inhibition of UDP binding at 100 μM, n = 3, mean ± SEM
human NTPDase2 = target: T3, human NTPDase2 (Homo sapiens, UniProt Q9Y5L3); assay: NTPDase inhibition assay by capillary electrophoresis (CE), NTPDase2; type: biochemical; conditions: for Ki: human NTPDase2, CE method, ATP 320 μM, Km 70 μM, read-out: NTPDase2 Ki [μM] ± SEM
T3 sequence (Q9Y5L3 1-495): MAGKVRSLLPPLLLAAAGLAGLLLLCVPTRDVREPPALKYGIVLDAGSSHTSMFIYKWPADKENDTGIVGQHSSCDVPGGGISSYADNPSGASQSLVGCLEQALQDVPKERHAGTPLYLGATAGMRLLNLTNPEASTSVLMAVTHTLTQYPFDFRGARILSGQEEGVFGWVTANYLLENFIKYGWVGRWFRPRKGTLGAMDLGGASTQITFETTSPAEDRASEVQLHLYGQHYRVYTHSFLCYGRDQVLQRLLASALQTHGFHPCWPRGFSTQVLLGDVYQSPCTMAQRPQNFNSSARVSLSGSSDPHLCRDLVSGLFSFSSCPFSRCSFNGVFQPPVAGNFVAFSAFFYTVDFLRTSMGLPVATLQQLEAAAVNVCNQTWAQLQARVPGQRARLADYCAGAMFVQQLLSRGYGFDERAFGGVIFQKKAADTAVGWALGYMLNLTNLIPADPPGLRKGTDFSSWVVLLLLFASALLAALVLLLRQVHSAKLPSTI

Chain of rP2Y6 (Q63371 whole entry): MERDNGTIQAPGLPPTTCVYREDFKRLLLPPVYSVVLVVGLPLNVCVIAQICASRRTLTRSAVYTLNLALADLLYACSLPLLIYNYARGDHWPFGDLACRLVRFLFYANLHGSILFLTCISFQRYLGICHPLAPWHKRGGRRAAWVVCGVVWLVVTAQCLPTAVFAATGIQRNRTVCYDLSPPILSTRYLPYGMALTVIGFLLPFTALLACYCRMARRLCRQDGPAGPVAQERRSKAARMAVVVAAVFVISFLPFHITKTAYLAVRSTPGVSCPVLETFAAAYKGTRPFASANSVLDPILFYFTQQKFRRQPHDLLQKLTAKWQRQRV

SMILES | inhibition at 1000 µM (human NTPDase3) | Ki (human NTPDase3) | inhibition at 1000 µM (human NTPDase8) | Ki (human NTPDase8) | inhibition at 100 µM (rP2Y6) | Ki (human NTPDase2) | inhibitor of NTPDase (in words) (human NTPDase2; in words, compare Tab. 1)
CCOP(=O)(Cc1ccc(NC(=O)CNC(=O)[C@H]2O[C@@H](n3ccc(=O)[nH]c3=O)C(O)C2O)cc1)OCC (stereo in doubt) [Compound 2, 4-[2-((2S,3R,4S,5R)-5-(2,4-Dioxo-3,4-dihydropyrimidin-1(2H)-yl)-3,4-dihydroxy-tetrahydrofurane-2-carboxamido)ethaneamido]benzylphosphonic acid diethylester] | 0% | > 200 µM | 0% | > 100 µM | -10 ± 10% | 8.2 ± 2.1 µM | excellent inhibitor
CCOP(=O)(Cc1ccc(NC(=O)CCNC(=O)[C@H]2O[C@@H](n3ccc(=O)[nH]c3=O)C(O)C2O)cc1)OCC (stereo in doubt) [Compound 3, 4-[3-((2S,3R,4S,5R)-5-(2,4-Dioxo-3,4-dihydropyrimidin-1(2H)-yl)-3,4-di-hydroxy-tetrahydrofurane-2-carboxamido)propaneamido]benzylphosphonic acid diethylester] | 40% | > 200 µM | 0% | > 100 µM | 7 ± 7% | 173 ± 17 µM | –
